Values joined by “and” are separate entries in the source; they are usually repeats but may differ in a detail not shown here. Equal entries are not always repeated. “Also recorded” adds a separate entry of the source. Positions of bridges follow the written chain, without caps; N, C: chain ends. Residues, ends and D or L forms follow the SMILES beside them.
Key:
cerebellar neurons [1] = type: cell-based, rat; conditions: K252a 100 nM, KT5720 200 nM, H-89 400 nM, Wortmannin and LY294002 10 μM; for effect on the neurite outgrowth response to BAG: BAG 6 μM; for effect on the neurite outgrowth response to BDNF: BDNF 5 ng/ml; for effect on the neurite outgrowth response to FGF2: FGF2 5 ng/ml
Method: To test the effects of various agents, the experiments were done as indicated in the figure using control media containing no additional supplements, or using media additionally supplement with K252a (100 nM final concentration), a PKA inhibitor (KT5720 at 200 nM final concentration or H-89 at 400 nM final concentration), or a PI3K inhibitor (Wortmannin or Ly294002, each at a final concentration of 10 μM). […] Each column in the figure indicates pooled results from at least three independent experiments, and the bars on each column indicate the SEM.
Reagents and culture treatment. Unless otherwise noted here, reagents in the experiments set forth in this Section were obtained and as set forth supra, in Section 7.1.3 et seq. In particular, recombinant human FGF2 and BDNF were obtained from R&D systems (Minneapolis, Minn.) and used at final concentrations of 5 ng/ml. The Trk receptor […] K252a was obtained from Calbiochem (San Diego, Calif.) and used at a final concentration of 100 nM. The Trk agonist peptide BAG (SEQ ID NO:18) was obtained from a commercial supplier (Multiple Peptide Systems, San Diego Calif.). […] A p75 NTR rabbit polyclonal antibody was raised against the extracellular domain of that receptor as previously described (see, Huber & Chao, Dev. Biol. 1995, 167:227–238) and used at a 1:200 dilution of serum. The known PKA inhibitors KT5720 and H-89 were obtained from Calbiochem (San Diego, Calif.) and used at final concentrations of 200 and 400 nM, respectively.

Trk receptor = Trk receptor (Rattus norvegicus, UniProt Q63604); conditions: maximally active BAG (6 μM); peptides 125 μM, K252a 100 nM
cerebellar neurons [2] = assay: Neurite outgrowth assay, cerebellar neurons over 3T3 monolayers (stimulation / basal outgrowth); type: cell-based, rat; conditions: for effect on basal neurite outgrowth: absence of any natural NT ligand, N-Ac-CRGEC-NH2 at concentrations greater than about 400 μM
Method: (§1) After 16 hours, the co-cultures were fixed and mean neurite length determined as has been previously described (Williams et al., J. Biol. Chem. 2000, 275:4007–4012).

TrkB receptor [3] = biological target: T1, TrkB receptor (Rattus norvegicus, UniProt Q63604); assay: Neurite outgrowth assay, inhibition of the BDNF response; type: cell-based
T1 construct: endogenous in cells; host or cells: primary rat cerebellar neurons co-cultured on 3T3 fibroblast monolayers
Method: as §1
(§2) The effect of this peptide on the BDNF and NT-4 response was tested in the above-described neurite outgrowth assay, with both NT ligands used at concentrations of 5 ng/ml.

TrkB receptor [4] = biological target: T1, TrkB receptor; assay: Neurite outgrowth assay, inhibition of the NT-4 response; type: cell-based
Method: as §1, §2

GT1b = assay: Neurite outgrowth over N-cadherin expressing 3T3 cells with monoclonal antibody for GT1b; type: cell-based, rat; conditions: antibody 20 μg/ml; Y27632 10 μM, BAG 6 μM
Method: Cultures were maintained for 22 hours before fixing and staining for GAP-43. […] Each column in the figure indicates pooled results from between 7 and 10 independent experiments, and the bars on each column indicate the SEM.
Reagents and culture treatment. […] In particular, recombinant human FGF2 and BDNF were obtained from R&D systems (Minneapolis, Minn.) and used at final concentrations of 5 ng/ml. The Trk receptor agonist K252a was obtained from Calbiochem (San Diego, Calif.) and used at a final concentration of 100 nM. The Trk agonist peptide BAG (SEQ ID NO:18) was obtained from a commercial supplier (Multiple Peptide Systems, San Diego Calif.). […] A p75 NTR rabbit polyclonal antibody was raised against the extracellular domain of that receptor as previously described (see, Huber & Chao, Dev. Biol. 1995, 167:227–238) and used at a 1:200 dilution of serum. The known PKA inhibitors KT5720 and H-89 were obtained from Calbiochem (San Diego, Calif.) and used at final concentrations of 200 and 400 nM, respectively.

p75^NTR receptor = assay: Neurite outgrowth over N-cadherin expressing 3T3 cells after treatment with antibody to p75NTR; type: cell-based, rat; conditions: Y27632 10 μM, BAG 6 μM, BDNF 5 ng/ml added after antibody treatment
Method: These antibody treated neurons were cultured after treatment in either: (1) control media without supplements; (2) the Rho kinase inhibitor Y27632 (10 μM final concentration); (3) BAG polypeptide (6 μM final concentration); or (4) BDNF neurotrophin (5 ng/ml final concentration). […] Each column in the figure indicates pooled results from the number of independent experiments indicated above it, and the bars on each column indicate the SEM.
Reagents and culture treatment. Unless otherwise noted here, reagents in the experiments set forth in this Section were obtained and as set forth supra, in Section 7.1.3 et seq. In particular, recombinant human FGF2 and BDNF were obtained from R&D systems (Minneapolis, Minn.) and used at final concentrations of 5 ng/ml. The Trk receptor […] K252a was obtained from Calbiochem (San Diego, Calif.) and used at a final concentration of 100 nM. The Trk agonist peptide BAG (SEQ ID NO:18) was obtained from a commercial supplier (Multiple Peptide Systems, San Diego Calif.). Recombinant MAG-Fc chimera was obtained from R&D Systems (Minneapolis, Minn.) and used at a final concentration of 5–25 μg/ml. Monoclonal antibody to GT1b (clone GMR5) was obtained from Seikagaku America (Falmouth, Mass.) and used at a final concentration of 20 μg/ml. […]

MAG inhibitory activity [5] = assay: Neurite outgrowth over N-cadherin expressing 3T3 (LK8) cells with soluble MAG-Fc; type: cell-based, rat; conditions: for effect on MAG-Fc inhibition of neurite outgrowth: MAG-Fc up to 25 μg/ml, Y27632 10 μM, BAG 6 μM, BDNF 5 ng/ml
Method: Reagents and culture treatment. […] In particular, recombinant human FGF2 and BDNF were obtained from R&D systems (Minneapolis, Minn.) and used at final concentrations of 5 ng/ml. The Trk receptor agonist K252a was obtained from Calbiochem (San Diego, Calif.) and used at a final concentration of 100 nM. The Trk agonist peptide BAG (SEQ ID NO:18) was obtained from a commercial supplier (Multiple Peptide Systems, San Diego Calif.). […] Monoclonal antibody to GT1b (clone GMR5) was obtained from Seikagaku America (Falmouth, Mass.) and used at a final concentration of 20 μg/ml. A p75 NTR rabbit polyclonal antibody was raised against the extracellular domain of that receptor as previously described (see, Huber & Chao, Dev. Biol. 1995, 167:227–238) and used at a 1:200 dilution of serum. The known PKA inhibitors KT5720 and H-89 were obtained from Calbiochem (San Diego, Calif.) and used at final concentrations of 200 and 400 nM, respectively. The known PI3K inhibitors Wortmnannin and LY294002 were also obtained from Calbiochem (San Diego, Calif.) and were both used at final concentrations of 10 μM. The Rho kinase inhibitor Y27632 was obtained from Tocris (Bristol, UK) and used at 10 μM final concentration.
All reagents were diluted into the co-culture media and in general added to the cultures just prior to plating of the neurons. The exception was antiserum raised against the p75^NTR receptor. Instead, a high density neuronal suspension was treated with a 1:200 dilution of the serum for 60 minutes. The neurons were then diluted by a factor of about 20, and seeded out for culture.

MAG inhibitory activity [6] = assay: Neurite outgrowth over 3T3 cells that do not express N-cadherin with soluble MAG-Fc; type: cell-based, rat; conditions: 3T3 without N-cadherin, BAG 6 μM
MAG inhibitory activity [7] = assay: Substrate based neurite outgrowth assay in inhibitory environment (MAG-Fc coated wells); type: cell-based, rat; conditions: for neurite growth in the inhibitory environment (overall / dose response) / neurite growth in the inhibitory environment at 33 μg/ml: 27 hours; for neurite growth in the inhibitory environment at 33 μg/ml: peptide 33 μg/ml
Method: First, slides are coated with polylysine at 17 μg/ml in distilled water (“dH2O) for thirty (30) minutes at room temperature. After aspirating the wells, a mixture of anti-human IgG and/or fibronectin (both at 10 μg/ml in DMEM) is added to wells to be coated with those compounds, and incubated for 120 minutes. […] PND2/3 rat cerebellar neurons are then added at 15K to each well in DMEM, 10% FCS, 25 mM KCl and 5 ng/ml FGF2, bringing the final media volume to 300 μl in each well. The cerebellar neurons are cultured for 27 hours before fixing and staining for GAP-43.

cerebellar neurons [8] = conditions: FGF2 5 ng/ml, WIN55,2122-2 0.2 μM; linear peptide up to 125 μM
Method: The peptides were also tested for their ability to inhibit the neurite outgrowth response stimulated by other agents, including N-cadherin, FGF2 or a CB1 receptor agonist.

Chain of Trk receptor (Q63604 32-821): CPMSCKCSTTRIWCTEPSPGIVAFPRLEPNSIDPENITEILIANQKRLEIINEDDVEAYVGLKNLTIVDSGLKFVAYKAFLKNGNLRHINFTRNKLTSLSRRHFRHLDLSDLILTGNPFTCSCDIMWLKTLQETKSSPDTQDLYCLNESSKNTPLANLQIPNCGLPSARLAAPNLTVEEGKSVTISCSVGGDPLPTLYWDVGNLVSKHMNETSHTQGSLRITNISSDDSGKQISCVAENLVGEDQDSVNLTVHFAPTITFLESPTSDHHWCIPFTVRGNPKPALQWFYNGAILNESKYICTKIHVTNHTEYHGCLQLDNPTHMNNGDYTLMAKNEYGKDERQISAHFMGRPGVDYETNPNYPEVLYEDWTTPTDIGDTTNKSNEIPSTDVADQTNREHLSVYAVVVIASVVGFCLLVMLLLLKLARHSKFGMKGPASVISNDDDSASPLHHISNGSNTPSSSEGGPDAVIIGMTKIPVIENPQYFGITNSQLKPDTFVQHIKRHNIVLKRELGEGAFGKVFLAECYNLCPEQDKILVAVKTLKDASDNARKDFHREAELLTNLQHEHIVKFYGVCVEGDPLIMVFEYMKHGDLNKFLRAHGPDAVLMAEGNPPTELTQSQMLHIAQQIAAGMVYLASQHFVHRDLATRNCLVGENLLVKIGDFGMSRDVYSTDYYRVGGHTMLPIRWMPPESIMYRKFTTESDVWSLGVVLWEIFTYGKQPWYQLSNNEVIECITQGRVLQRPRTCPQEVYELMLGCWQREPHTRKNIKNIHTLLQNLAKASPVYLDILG
T1 sequence (Q63604 32-821): as above

Compound: O=S(=O)(NCCNC/C=C/c1ccc(Br)cc1)c1cccc2cnccc12 [H-89]
- effect on the neurite outgrowth response to BAG (cerebellar neurons [1]): essentially abolished
- effect on the neurite outgrowth response to BDNF (cerebellar neurons [1]): essentially abolished
- effect on the neurite outgrowth response to FGF2 (cerebellar neurons [1]): unaffected

Compound: COC(=O)[C@@]1(O)C[C@H]2O[C@]1(C)n1c3ccccc3c3c4c(c5c6ccccc6n2c5c31)C(=O)NC4 [K252a]
- inhibition of the neurite outgrowth response to the BAG peptide (Trk receptor): fully inhibited the response
- effect on the neurite outgrowth response to BAG (cerebellar neurons [1]): essentially abolished
- effect on the neurite outgrowth response to BDNF (cerebellar neurons [1]): essentially abolished
- effect on the neurite outgrowth response to FGF2 (cerebellar neurons [1]): unaffected

Compound: CCCCCCOC(=O)[C@]1(O)C[C@@H]2O[C@@]1(C)n1c3ccccc3c3c4c(c5c6ccccc6n2c5c31)C(=O)NC4 [KT5720]
- effect on the neurite outgrowth response to BAG (cerebellar neurons [1]): essentially abolished
- effect on the neurite outgrowth response to BDNF (cerebellar neurons [1]): essentially abolished
- effect on the neurite outgrowth response to FGF2 (cerebellar neurons [1]): unaffected

Compound: CC(=O)N[C@H]1CSSC[C@@H](C(N)=O)NC(=O)[C@H](CCC(=O)O)NC(=O)CNC(=O)[C@H](CCCNC(=N)N)NC(=O)[C@H](CCCNC(=N)N)NC(=O)[C@H](CO)NC1=O [N-Ac-CSRRGEC-NH2] (Ac-CSRRGEC-NH2; disulfide 1-7)
- inhibition of the neurite outgrowth response to the BAG peptide (Trk receptor): can fully inhibit the activity
- effect on basal neurite outgrowth (cerebellar neurons [2]): neither the N-Ac-CSRRGEC-NH2 (SEQ ID NO:2) peptide nor its NGF or NT-3 equivalents had any effect on basal neurite outgrowth
- TrkB antagonist potency compared with NT-3 and NGF equivalent peptides (TrkB receptor [3]): more potent TrkB antagonist
- IC50 (TrkB receptor [3]; 50% inhibition of the BDNF response, BDNF 5 ng/ml): 27 µM and ~25 µM
- fold better than the NGF and NT-3 derived peptides at inhibiting the BDNF response (TrkB receptor [3]; BDNF 5 ng/ml): approximately 5 fold
- IC50 (TrkB receptor [4]): ~55 µM

Compound: CCN(CC)CCCCNc1ncc2cc(-c3cc(OC)cc(OC)c3)c(NC(=O)NC(C)(C)C)nc2n1 [PD17304, reference compound]
- inhibition of the neurite outgrowth response to the BAG peptide (Trk receptor): did not inhibit the response

Compound: C[C@@H](N)[C@H]1CC[C@H](C(=O)Nc2ccncc2)CC1 [Y27632, reference compound]
- effect on inhibition of neurite outgrowth by GT1b antibody (GT1b): effectively abolishes this effect
- effect on inhibitory response elicited by p75NTR antibody (p75^NTR receptor): does not elicit an inhibitory response
- effect on MAG-Fc inhibition of neurite outgrowth (MAG inhibitory activity [5]): MAG-Fc does not inhibit neurite outgrowth

Compound: Ac-CSRRGELAASRRGELC-NH2 (cysteine pairing not given here) [BAG]
- effect on inhibition of neurite outgrowth by GT1b antibody (GT1b): the antibody's inhibitor effect is effectively eliminated
- EC50 (cerebellar neurons [2]): ~0.3 µM
- concentration of near maximal neurite outgrowth response (cerebellar neurons [2]): about 600 Nm
- promotion of axonal growth compared with established growth promoting agents (cerebellar neurons [2]; BAG 6 μM, comparators 5 ng/ml): promotes axonal growth by the same extent as maximally active concentrations of NT-R, BDNF and FGF2
- effect on inhibitory response elicited by p75NTR antibody (p75^NTR receptor): effectively blocks the p75^NTR antibody's inhibitory effect
- effect on neurite outgrowth in the absence of MAG-Fc (MAG inhibitory activity [6]): does not have a substantial effect
- effect on MAG-Fc inhibition of neurite outgrowth (MAG inhibitory activity [6]; MAG-Fc 25 μg/ml, BDNF 5 ng/ml): does effectively block the MAG response
- neurite growth in the inhibitory environment at 10 μg/ml and 100 μg/ml (MAG inhibitory activity [7]; concentrations of 10 μg/ml and 100 μg/ml, MAG-Fc coating): promotes neurite growth
- lowest concentration that effectively blocks MAG inhibitor activity (MAG inhibitory activity [5]; MAG-Fc 25 μg/ml): 30 nM
- effect on MAG-Fc inhibition of neurite outgrowth (MAG inhibitory activity [5]): MAG-Fc failed to inhibit neurite outgrowth

Compound: Ac-SRRGELA-NH2
- inhibition of the neurite outgrowth response to the BAG peptide (Trk receptor): very little to no effect
- inhibition of the BDNF response (TrkB receptor [3]; BDNF 5 ng/ml, linear peptide up to 125 μM): did not inhibit any of the response
- inhibition of the NT-4 response (TrkB receptor [4]; NT-4 5 ng/ml, linear peptide up to 125 μM): did not inhibit any of the response
- inhibition of neurite outgrowth response stimulated by N-cadherin, FGF2 or a CB1 receptor agonist (cerebellar neurons [8]): did not inhibit any of the response

Compound: Ac-dCdLdEGdRdRdSdAdAdLdEGdRdRdSdC-NHs [riBAG1]
- neurite growth in the inhibitory environment (overall / dose response) (MAG inhibitory activity [7]; MAG-Fc coating): block MAG inhibitory activity and promote neurite outgrowth
- neurite growth in the inhibitory environment at 33 μg/ml (MAG inhibitory activity [7]; MAG-Fc coating): does not promote growth

Compound: N-Ac-CRGEC-NH2
- effect on basal neurite outgrowth (cerebellar neurons [2]): no effect on basal neurite outgrowth

Compound: c(dLdEGdRdRdSdLdEGdRdRdS) [hriBAG2]
- neurite growth in the inhibitory environment (overall / dose response) (MAG inhibitory activity [7]; MAG-Fc coating): block MAG inhibitory activity and promote neurite outgrowth; also recorded: promoted substantial dose-dependent neurite growth
- dose at which a neurite growth response can be observed (MAG inhibitory activity [7]; inhibitory environment (MAG-Fc coating)): about 10 μg/ml
- neurite growth in the inhibitory environment at 33 μg/ml (MAG inhibitory activity [7]; MAG-Fc coating): almost double the value seen in the inhibitory environment without the peptidomimetic; also recorded: promoted neurite growth to a substantially greater extent than BDNF, BAG peptide, and the hBAG2 and riBAG1 at any concentration

Compound: cyclo(SRRGELSRRGEL) [hBAG2]
- neurite growth in the inhibitory environment (overall / dose response) (MAG inhibitory activity [7]; MAG-Fc coating): block MAG inhibitory activity and promote neurite outgrowth
- neurite growth in the inhibitory environment at 33 μg/ml (MAG inhibitory activity [7]; MAG-Fc coating): promotes neurite growth; also recorded: promoted neurite growth to an extent comparable to BAG polypeptide at a concentration of 10 μg/ml

Reference: patent US7196061B2, “Compounds that modulate neuronal growth and their uses” (priority 2003, dated 2007)
